Results reported in US20220226337A1 (Gilead Sciences, Inc., priority 2018, published 2022).

Molecular target: T1, α4β7 integrin interaction with MadCAM-1 (RPMI8866 cells) (Homo sapiens, UniProt P13612+P26010)
T1 construct: α4β7 integrin expressing cells; endogenous in cells; host or cells: RPMI8866 cells
T1 sequence (P13612 34-1032): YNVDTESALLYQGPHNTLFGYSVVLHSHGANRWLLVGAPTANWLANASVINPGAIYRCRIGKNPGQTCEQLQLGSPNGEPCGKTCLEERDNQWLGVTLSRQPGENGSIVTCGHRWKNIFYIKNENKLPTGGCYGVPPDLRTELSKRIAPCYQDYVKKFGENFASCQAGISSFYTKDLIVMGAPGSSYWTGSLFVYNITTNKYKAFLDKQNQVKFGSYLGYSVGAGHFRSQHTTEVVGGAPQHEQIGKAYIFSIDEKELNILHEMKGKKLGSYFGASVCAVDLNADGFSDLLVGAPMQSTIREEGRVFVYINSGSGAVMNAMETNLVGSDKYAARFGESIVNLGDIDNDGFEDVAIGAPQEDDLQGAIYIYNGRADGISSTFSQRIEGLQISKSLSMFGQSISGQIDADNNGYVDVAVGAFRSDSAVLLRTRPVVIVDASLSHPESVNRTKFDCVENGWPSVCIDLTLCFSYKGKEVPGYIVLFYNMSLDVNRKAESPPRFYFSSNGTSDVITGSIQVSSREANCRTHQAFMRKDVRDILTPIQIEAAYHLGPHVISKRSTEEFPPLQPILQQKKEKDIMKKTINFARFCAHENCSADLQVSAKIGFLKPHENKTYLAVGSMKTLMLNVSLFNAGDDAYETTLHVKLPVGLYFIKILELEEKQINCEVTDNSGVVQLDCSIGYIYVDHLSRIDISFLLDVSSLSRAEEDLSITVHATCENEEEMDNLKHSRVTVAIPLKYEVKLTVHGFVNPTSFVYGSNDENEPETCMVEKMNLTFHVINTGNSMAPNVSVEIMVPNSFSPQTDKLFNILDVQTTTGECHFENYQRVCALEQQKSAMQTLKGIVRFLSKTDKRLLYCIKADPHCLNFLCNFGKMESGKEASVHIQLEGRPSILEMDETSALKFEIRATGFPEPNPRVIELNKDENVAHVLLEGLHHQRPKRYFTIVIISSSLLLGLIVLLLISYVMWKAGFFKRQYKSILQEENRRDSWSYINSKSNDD
T1 sequence (P26010 20-798): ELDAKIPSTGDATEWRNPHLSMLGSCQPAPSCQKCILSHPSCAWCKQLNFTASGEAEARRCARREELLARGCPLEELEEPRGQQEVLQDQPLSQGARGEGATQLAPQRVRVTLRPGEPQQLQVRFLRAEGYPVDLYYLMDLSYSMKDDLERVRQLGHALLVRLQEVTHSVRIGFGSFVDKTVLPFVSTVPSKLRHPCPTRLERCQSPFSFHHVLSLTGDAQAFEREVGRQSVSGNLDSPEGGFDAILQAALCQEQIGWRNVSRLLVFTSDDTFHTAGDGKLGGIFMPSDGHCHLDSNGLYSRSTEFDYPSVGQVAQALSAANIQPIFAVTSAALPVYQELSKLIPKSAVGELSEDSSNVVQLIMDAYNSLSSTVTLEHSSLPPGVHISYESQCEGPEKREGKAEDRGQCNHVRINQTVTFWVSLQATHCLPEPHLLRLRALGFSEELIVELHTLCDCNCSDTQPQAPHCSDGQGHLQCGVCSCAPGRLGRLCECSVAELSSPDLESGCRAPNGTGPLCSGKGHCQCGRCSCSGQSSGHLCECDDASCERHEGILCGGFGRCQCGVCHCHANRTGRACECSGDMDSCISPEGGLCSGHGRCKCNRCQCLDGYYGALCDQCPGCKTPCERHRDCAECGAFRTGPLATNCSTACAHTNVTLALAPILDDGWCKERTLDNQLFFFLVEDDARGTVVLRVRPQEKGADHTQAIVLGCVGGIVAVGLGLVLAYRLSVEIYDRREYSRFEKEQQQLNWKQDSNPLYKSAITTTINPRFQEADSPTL
Assay: α4β7 Integrin Cell Capture Assay
Type: cell-based
Conditions: capture of α4β7 integrin expressing RPMI8866 cells on recombinant MadCAM-1 extracellular domain-coated plate; 0.5 mM MnCl2
Method in brief: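 RPMI8866 cells (0.5×10^6 cells/mL in DMEM + 0.5% FBS + 0.5 mM MnCl2) preincubated with compound 1 h at 37 °C, then allowed to adhere 30 min at 37 °C to plates coated with MAdCAM-1 extracellular domain (1.0 μg/mL). Bound cells fixed with 2% glutaraldehyde, Hoechst-stained, imaged and counted; EC50 from cell count versus concentration.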

EC50 [pM] | Compound
62000 | O=C(N[C@@H](Cc1ccc(-c2c(Cl)cc(F)cc2Cl)c2c1OCCCO2)C(=O)O)c1c(Cl)cccc1Cl [Example 97, (S)-3-(9-(2,6-dichloro-4-fluorophenyl)-3,4-dihydro-2H-benzo[b][1,4]dioxepin-6-yl)-2-(2,6-dichlorobenzamido)propanoic acid]
97800 | O=C(N[C@@H](Cc1ccc(-c2c(Cl)cc(F)cc2Cl)c2c1OCCC2)C(=O)O)c1c(F)cccc1F [Example 98, (S)-3-(5-(2,6-dichloro-4-fluorophenyl)chroman-8-yl)-2-(2,6-difluorobenzamido)propanoic acid]
9330 | CCOCc1cc(OC)c(-c2ccc(C[C@H](NC(=O)c3c(F)cccc3F)C(=O)O)c3c2CCCO3)c(OC)c1 [Example 99, (S)-2-(2,6-difluorobenzamido)-3-(5-(4-(ethoxymethyl)-2,6-dimethoxyphenyl)chroman-8-yl)propanoic acid]
1670 | CCOCc1cc(OC)c(-c2ccc(C[C@H](NC(=O)c3c(F)cc(NS(=O)(=O)c4ccc(-c5ccnc(F)c5)cc4)cc3F)C(=O)O)c3c2CCCO3)c(OC)c1 [Example 100, (S)-2-(2,6-difluoro-4-((4-(2-fluoropyridin-4-yl)phenyl)sulfonamido)benzamido)-3-(5-(4-(ethoxymethyl)-2,6-dimethoxyphenyl)chroman-8-yl)propanoic acid]
26900 | O=C(N[C@@H](Cc1ccc(-c2c(Cl)cc(F)cc2Cl)c2c1CCCN2)C(=O)O)c1c(F)cccc1F [Example 101, (S)-3-(8-(2,6-dichloro-4-fluorophenyl)-1,2,3,4-tetrahydroquinolin-5-yl)-2-(2,6-difluorobenzamido)propanoic acid]
267000 | CN1CCCc2c(C[C@H](NC(=O)c3c(F)cccc3F)C(=O)O)ccc(-c3c(Cl)cc(F)cc3Cl)c21 [Example 102, (S)-3-(8-(2,6-dichloro-4-fluorophenyl)-1-methyl-1,2,3,4-tetrahydroquinolin-5-yl)-2-(2,6-difluorobenzamido)propanoic acid]
96000 | O=C1CCc2c(C[C@H](NC(=O)c3c(F)cccc3F)C(=O)O)ccc(-c3c(Cl)cc(F)cc3Cl)c2N1 [Example 103, (S)-3-(8-(2,6-dichloro-4-fluorophenyl)-2-oxo-1,2,3,4-tetrahydroquinolin-5-yl)-2-(2,6-difluorobenzamido)propanoic acid]
88700 | O=C(N[C@@H](Cc1ccc(-c2c(Cl)cc(F)cc2Cl)c2c1CCC2)C(=O)O)c1c(F)cccc1F [Example 104, (S)-3-(7-(2,6-dichloro-4-fluorophenyl)-2,3-dihydro-1H-inden-4-yl)-2-(2,6-difluorobenzamido)propanoic acid]
2440 | Cc1c(-c2ccc(C[C@H](NC(=O)c3c(F)cccc3F)C(=O)O)c3c2CCC3)c(=O)n(C)c2ccc(F)cc12 [Example 105, (S)-2-(2,6-difluorobenzamido)-3-(7-(6-fluoro-1,4-dimethyl-2-oxo-1,2-dihydroquinolin-3-yl)-2,3-dihydro-1H-inden-4-yl)propanoic acid]
587 | COc1cccc(OC)c1-c1ccc(CC(NC(=O)c2c(F)cc(NS(=O)(=O)c3ccc(-n4cncn4)cc3)cc2F)C(=O)O)c2c1CN(C)CC2 (stereo not drawn) [Example 106, 2-(4-((4-(1H-1,2,4-triazol-1-yl)phenyl)sulfonamido)-2,6-difluorobenzamido)-3-(8-(2,6-dimethoxyphenyl)-2-methyl-1,2,3,4-tetrahydroisoquinolin-5-yl)propanoic acid]
812 | COc1cccc(OC)c1-c1ccc(CC(NC(=O)c2c(F)cc(NS(=O)(=O)c3ccc(-n4cncn4)cc3)cc2F)C(=O)O)c2c1CN(C(C)=O)CC2 (stereo not drawn) [Example 107]
260 | Cc1nc(-c2ccc(C[C@H](NC(=O)c3c(F)cc(N4CCOC[C@@H]4C(F)(F)F)cc3F)C(=O)O)c3c2OCCC3)c(=O)n(C)c1C [Example 108, (S)-2-(2,6-difluoro-4-((R)-3-(trifluoromethyl)morpholino)benzamido)-3-(8-(4,5,6-trimethyl-3-oxo-3,4-dihydropyrazin-2-yl)chroman-5-yl)propanoic acid]
27 | Cc1cc(N2CCOC[C@@H]2C(F)(F)F)cc(F)c1C(=O)N[C@@H](Cc1ccc(-n2c(=O)c3ccncc3n(C)c2=O)c2c1CCCO2)C(=O)O [Example 115, (S)-2-(2-fluoro-6-methyl-4-((R)-3-(trifluoromethyl)morpholino)benzamido)-3-(8-(1-methyl-2,4-dioxo-1,4-dihydropyrido[3,4-d]pyrimidin-3(2H)-yl)chroman-5-yl)propanoic acid]
19000 | COCN(C(=O)c1c(F)cc(N2CCOC[C@@H]2C(F)(F)F)cc1F)[C@@H](Cc1ccc(-c2nc(C)c(C)n(C)c2=O)c2c1CCCO2)C(=O)O [Example 116]
758 | Cc1nc(-c2ccc(C[C@H](NC(=O)c3c(F)cc(N4CCOC[C@@H]4C(F)(F)F)c(F)c3F)C(=O)O)c3c2OCCC3)c(=O)n(C)c1C [Example 121]
271 | CC[C@@H](Nc1cc(F)c(C(=O)N[C@@H](Cc2ccc(-c3nc(C)c(C)n(C)c3=O)c3c2CCCO3)C(=O)O)c(F)c1F)C(F)(F)F [Example 122]
978 | Cn1cc(C(F)(F)F)nc(-c2ccc(C[C@H](NC(=O)c3c(F)cc(N4CCOC[C@@H]4C(F)(F)F)cc3F)C(=O)O)c3c2OCCC3)c1=O [Example 123]
65 | Cn1c(=O)n(-c2ccc(C[C@H](NC(=O)c3c(F)cc(N4CCOC[C@@H]4C(F)(F)F)cc3F)C(=O)O)c3c2OCCC3)c(=O)c2ccncc21 [Example 124]
94900 | Cc1nc(-c2ccc(C[C@@H](C(=O)O)N(C)C(=O)c3c(F)cc(N4CCOC[C@@H]4C(F)(F)F)cc3F)c3c2OCCC3)c(=O)n(C)c1C [Example 125]
379 | CC[C@@H](Nc1cc(F)c(C(=O)N[C@@H](Cc2ccc(-c3c(C)nc(C)n(C)c3=O)c3c2CCCO3)C(=O)O)c(F)c1F)C(F)(F)F [Example 126]
455 | Cn1c2c(nc(-c3ccc(C[C@H](NC(=O)c4c(F)cc(N5CCOC[C@@H]5C(F)(F)F)cc4F)C(=O)O)c4c3OCCC4)c1=O)CCCC2 [Example 127]
446 | Cc1cc(N2CCOC[C@@H]2C(F)(F)F)cc(F)c1C(=O)N[C@@H](Cc1ccc(-c2cnc(C)n(C)c2=O)c2c1CCCO2)C(=O)O [Example 128]
189 | Cc1cc(N2CCOC[C@@H]2C(F)(F)F)cc(F)c1C(=O)N[C@@H](Cc1ccc(-c2c(C)nc(C)n(C)c2=O)c2c1CCCO2)C(=O)O [Example 129]
341 | Cc1nc(C)n(C)c(=O)c1-c1ccc(C[C@H](NC(=O)c2c(F)cc(N3CCOC[C@@H]3C(F)(F)F)cc2F)C(=O)O)c2c1OCCC2 [Example 130]
1560 | Cc1nc(-c2ccc(C[C@H](NC(=O)c3c(F)cc(N4CC[C@@H]4C(F)(F)F)cc3F)C(=O)O)c3c2OCCC3)c(=O)n(C)c1C [Example 131]
193 | Cn1ncc(C(F)(F)F)c(-c2ccc(C[C@H](NC(=O)c3c(F)cc(N4CCOC[C@@H]4C(F)(F)F)cc3F)C(=O)O)c3c2OCCC3)c1=O [Example 132]
1420 | Cn1nc(C(F)(F)F)cc(-c2ccc(C[C@H](NC(=O)c3c(F)cc(N4CCOC[C@@H]4C(F)(F)F)cc3F)C(=O)O)c3c2OCCC3)c1=O [Example 133]
